Laboratory results as given in PMC12735704, “Synthesis of Substituted 1H-Phenalen-1-ones and Nitrogen-Containing Heterocyclic Analogues as Potential Anti-Plasmodial Agents” (Molecules, 2025).
Like-named read-outs stand apart in the source and are kept apart here.

Experiments:
[1] = test system: MCF-7 cells; test: Cytotoxicity study by MTT proliferation assay; type: cell-based; conditions: 72 h; for MCF-7 % Inh ± DS (10 μM): inhibition of cell growth; for inhibition at 10 µM: Homo sapiens, MCF7, inhibition of cell growth, read-out: MCF-7 % Inh ± DS (10 μM)
Protocol: • Cytotoxicity study by MTT proliferation assay. MCF-7 cells were purchased from ATCC (Manassas, VA, USA) and cultured in DMEN containing 10% FBS. For 3-(4,5-dimethylthiazol-2-yl)-2,5-diphenyltetrazolium (MTT) (Sigma–Aldrich, St. Louis, MO, USA) analysis, cells were plated in 96-well plates at 10,000 cells/well. Twenty-four hours after plating, vehicle (0.1% DMSO, final concentration) or compound was added to cells at indicated doses. Seventy-two hours following compound addition, MTT was added to each well (0.5 mg/mL, final concentration) and plates were incubated for an additional 3 h at 37 °C. Medium was then aspirated and the formazan product was solubilized in SDS–HCl (20% SDS; HCl 0.02 M). The absorbance of each well was measured at 570 nm using a microplate reader (Sigma–Aldrich, St. Louis, MO, USA).

[2] = test system: Chloroquine-resistant P. falciparum FCR3; test: In vitro antimalarial assay (parasitemia by blood smear, 48 h with compound); type: cell-based, Plasmodium falciparum; conditions: mean ± SD of three determinations
Protocol: • In vitro antimalarial assay.
FCR-3 chloroquine-resistant strain of P. falciparum (kindly provided by Dr. Fandeur, Pasteur Institute, Cayenne, France) was cultured on glucose-enriched RPMI 1640 medium, supplemented with 10% human serum at 37 °C. After 24 h of incubation at 37 °C, the medium was replaced by fresh medium supplemented with the compound to be evaluated (initial a screening used a concentration of 10 μg/mL), and incubation was continued for a further 48 h. On the third day of the test, a blood smear was taken from each well, and parasitemia was calculated for each concentration of sample compared to the control. Chloroquine (0.1 μg/mL) was used as a positive control. IC50 values were determined graphically by plotting concentrations (0.01–10 μg/mL) versus percent inhibition. All tests were performed in triplicate.

[3] = test system: Chloroquine-resistant P. falciparum FCR3; test: as above; type: cell-based, Plasmodium falciparum; conditions: for antiplasmodium activity (in words): FCR3 strain, tested up to 10 µM
[4] = test system: Plasmodium falciparum; parameters: method as in PMID 23985373; conditions: previously tested compounds; read-out: IC50 (antiplasmodial activity, previously tested compounds); cited from earlier work
[5] = Plasmodium falciparum, FCR3, FCR3 strain

Row | Compound | inhibition at 10 µM [1] [%] | IC50 [2, 5] [µM] | antiplasmodium activity (in words) [3] | other results
1 | 2-((2,6-dimethylphenyl)amino)-2,3-dihydro-1H-phenalen-1-one [Compound 24] |  |  |  | MCF-7 % Inh ± DS (10 μM) [1]: 7 ± 0.5%; IC50 ([2]; FCR3 strain): > 10 µM
2 | COc1cccc2c1C(=O)c1c(O)c3c(c(O)c1C2=O)C[C@@](O)(C(=O)CO)C[C@@H]3O[C@H]1C[C@H](N)[C@H](O)[C@H](C)O1 [Adriamycin, reference compound] | 63 ± 4.7 |  |  | 
3 | CCN(CC)CCCC(C)Nc1ccnc2cc(Cl)ccc12 (centres unmarked) [Chloroquine, reference compound] |  |  |  | IC50 ([3]; Plasmodium falciparum, FCR3, read-out: Chloroquine-Resistant P. falciparum FCR3 IC50 ± SD): 0.16 ± 0.02 µM
4 | O=C1C=Cc2cccc3cccc1c23 [Compound 1, 1H-phenalen-1-one] | 16 ± 0.4 | 2.46 ± 0.08 |  | 
5 | O=C1C=Cc2cccc3ccc(-c4ccccn4)c1c23 [Compound 1c] |  |  |  | IC50 [4]: 21 µM
6 | COc1ccc(C2=CC(=O)c3cccc4cccc2c34)cc1 [Compound 1d] |  |  |  | IC50 [4]: 2.1 µM
7 | O=C1C(Br)=Cc2cccc3cccc1c23 [Compound 2, 2-Bromo-1H-phenalen-1-one] | 2 ± 0.7 | < 1 |  | IC50 ([2]; FCR3 strain): 0.7 ± 0.04 µM
8 | O=C1C(I)=Cc2cccc3cccc1c23 [Compound 3, 2-Iodo-1H-phenalen-1-one] | 4 ± 0.4 | > 10 | significant loss in antiplasmodium activity | 
9 | O=C1C(c2ccccc2)=Cc2cccc3cccc1c23 [Compound 4, 2-phenyl-1H-phenalen-1-one] | 14 ± 0.8 | > 10 | significant loss in antiplasmodium activity | 
10 | N#Cc1ccc(C2=Cc3cccc4cccc(c34)C2=O)cc1 [Compound 5, 4-(1-oxo-1H-phenalen-2-yl)benzonitrile] | 12 ± 0.3 | > 10 |  | 
11 | O=C1C(c2ccc(F)cc2)=Cc2cccc3cccc1c23 [Compound 6, 2-(4-fluorophenyl)-1H-phenalen-1-one] | 10 ± 2 | > 10 |  | 
12 | O=C1C(c2ccoc2)=Cc2cccc3cccc1c23 [Compound 7, 2-(3-furyl)-1H-phenalen-1-one] | 22 ± 0.2 | > 10 | significant loss in antiplasmodium activity | 
13 | O=C1C=Cc2cccc3ccc(-c4ccccc4)c1c23 [Compound 9, 9-Phenyl-1H-phenalen-1-one] | 6 ± 0.1 | > 10 |  | 
14 | O=C1C=Cc2cccc3ccc(O)c1c23 [Compound 9-OH, 9-hydroxy-1H-phenalen-1-one] | 6 ± 0.7 | < 1 | sub-micromolar activity | IC50 ([2]; FCR3 strain): 0.72 ± 0.06 µM
15 | N#Cc1ccc(-c2ccc3cccc4c3c2C(=O)C=C4)cc1 [Compound 10, 4-(1-oxo-1H-phenalen-9-yl)benzonitrile] | 10 ± 1 | > 10 | detrimental to activity | 
16 | O=C1C=Cc2cccc3ccc(-c4ccc(F)cc4)c1c23 [Compound 11, 9-(4-fluorophenyl)-1H-phenalen-1-one] | 8 ± 0.2 | > 10 |  | 
17 | COc1ccc(-c2ccc3cccc4c3c2C(=O)C=C4)cc1 [Compound 12, 9-(4-methoxyphenyl)-1H-phenalen-1-one] | 15 ± 0.3 | > 10 |  | 

Row | Compound | inhibition at 10 µM [1] [%] | IC50 [2, 5] [µM] | antiplasmodium activity (in words) [3] | other results
18 | COc1cccc(-c2ccc3cccc4c3c2C(=O)C=C4)c1 [Compound 13, 9-(3-methoxyphenyl)-1H-phenalen-1-one] | 12 ± 0.1 | > 10 |  | 
19 | COc1ccccc1-c1ccc2cccc3c2c1C(=O)C=C3 [Compound 14, 9-(2-methoxyphenyl)-1H-phenalen-1-one] | 15 ± 0.2 | > 10 |  | 
20 | COc1ccc(Nc2ccc3cccc4c3c2C(=O)C=C4)cc1 [Compound 15, 9-[(4-methoxyphenyl)amino]-1H-phenalen-1-one] | 1 ± 0.4 | > 10 |  | 
21 | Cc1cccc(C)c1Nc1ccc2cccc3c2c1C(=O)C=C3 [Compound 16, 9-[(2,6-dimethylphenyl)amino]-1H-phenalen-1-one] | 0 | > 10 |  | 
22 | O=C1C=Cc2cccc3ccc(Nc4ccc(Cl)cc4)c1c23 [Compound 17, 9-[(4-chlorophenyl)amino]-1H-phenalen-1-one] | 12 ± 0.3 | > 10 |  | 
23 | N#Cc1ccc2cccc3c2c1C(=O)C=C3 [Compound 18, 1-oxo-1H-phenalene-9-carbonitrile] | 32 ± 0.5 |  | most potent compound | 
24 | NC(=O)c1ccc2cccc3c2c1C(=O)C=C3 [Compound 19, 1-oxo-1H-phenalene-9-carboxamide] | 0 | > 10 | neither the 2-cyano compound (20) nor the 9-amido compound (19) were active, even at 10 µM | 
25 | N#CC1=Cc2cccc3cccc(c23)C1=O [Compound 20, 1-oxo-1H-phenalene-2-carbonitrile] | 11 ± 0.2 | > 10 | neither the 2-cyano compound (20) nor the 9-amido compound (19) were active, even at 10 µM | 
26 | O=C1C(Nc2ccc(Cl)cc2)=Cc2cccc3cccc1c23 [Compound 22, 2-[(4-chloroanilino]-1H-phenalen-1-one] | 42 ± 0.1 | > 10 |  | 
27 | COc1ccc(NC2=Cc3cccc4cccc(c34)C2=O)cc1 [Compound 23, 2-(4-methoxyanilino)-1H-phenalen-1-one] | 12 ± 0.6 | > 10 |  | 
28 | O=C1C(Nc2ncccn2)=Cc2cccc3cccc1c23 [Compound 25, 2-(pyrimidin-2-ylamino)-1H-phenalen-1-one] | 16 ± 0.9 | > 10 |  | 
29 | O=C1C=Cc2c(O)ccc3ccc(O)c1c23 [Compound 30, 4,9-dihydroxy-1H-phenalen-1-one] | 16 ± 0.4 | > 10 | diminished antiplasmodium activity | 
30 | CCOC(=O)c1cc2cccc3c2c(c1O)C(=O)C=C3 [Compound 33, ethyl 9-hydroxy-1-oxo-1H-phenalene-8-carboxylate] | 0 | > 10 | lost | 
31 | O=C(O)c1cc2cccc3c2c(c1O)C(=O)C=C3 [Compound 34, 9-hydroxy-1-oxo-1H-phenalene-8-carboxylic acid] | 0 | > 10 | lost | 
32 | O=C1C=Cc2cccc3cncc1c23 [Compound 35, 4H-benzo[de]isoquinolin-4-one] | 7 ± 0.1 | > 10 | complete loss of activity | 
33 | COc1ccc2c3c(cncc13)C(=O)C=C2 [Compound 36, 9-methoxy-4H-benzo[de]isoquinolin-4-one] | 5 ± 0.9 | > 10 |  | 
34 | N-(1-oxo-1H-phenalene-2-yl)carboxamide [Compound 21] |  |  |  | MCF-7 % Inh ± DS (10 μM) [1]: 8 ± 0.3%; IC50 ([2]; FCR3 strain): > 10 µM
